Data: PubChem BioAssay AID652002 (Sanford-Burnham Center for Chemical Genomics, 2013)
Activity calls are given as the source filed them. How the calls were made is not given here.

What was measured:
[1] = compound enhancement of TRAIL-induced cell killing – NB7 cells plus caspase-8, luminescence, panel, dose response (AID 652002); details: NB7 neuroblastoma +caspase-8, no TRAIL, compound-alone cytotoxicity counter-screen, luminescence viability, NB7+Caspase-8
[2] = biological target: Tumor necrosis factor receptor superfamily member 10B (Homo sapiens) (UniProt O14763); assay: as above; details: NB7 neuroblastoma +caspase-8, TRAIL sensitization, luminescence viability; NB7+Caspase-8; with TRAIL, mean of runs
NB7+Caspase-8 = assay: as above; details: NB7 neuroblastoma +caspase-8, TRAIL sensitization, luminescence viability, with TRAIL
[3] = run 1, single replicate panel EC50
[4] = run 2, single replicate panel EC50

Chain of Tumor necrosis factor receptor superfamily member 10B (Homo sapiens) (O14763 whole entry, looked up): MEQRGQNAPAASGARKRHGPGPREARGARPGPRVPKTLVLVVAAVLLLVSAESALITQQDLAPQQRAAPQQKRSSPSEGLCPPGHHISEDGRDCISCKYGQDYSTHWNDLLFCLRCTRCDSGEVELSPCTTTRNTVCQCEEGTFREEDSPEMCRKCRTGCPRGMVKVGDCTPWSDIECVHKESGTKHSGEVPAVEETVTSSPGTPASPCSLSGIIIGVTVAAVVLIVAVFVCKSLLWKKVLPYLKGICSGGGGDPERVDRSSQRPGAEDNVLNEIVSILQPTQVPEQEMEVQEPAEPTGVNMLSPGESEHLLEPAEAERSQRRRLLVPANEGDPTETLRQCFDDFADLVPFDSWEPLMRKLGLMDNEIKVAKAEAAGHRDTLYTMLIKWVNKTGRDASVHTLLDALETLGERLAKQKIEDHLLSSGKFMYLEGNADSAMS

SMILES	EC50 ([1]; mean of runs)	EC50 [1, 3]	EC50 [1, 4]	EC50 [2]	EC50 (NB7+Caspase-8; [3])	EC50 (NB7+Caspase-8; [4])
O=C1c2ccc(Cl)cc2S(=O)(=O)c2cccc(C(=O)N3CCC(Cc4ccccc4)CC3)c21	> 12.5 µM (inactive)	> 12.5 µM	> 12.5 µM	> 12.5 µM (inactive)	> 12.5 µM	> 12.5 µM
Cc1nc(Cl)c2oc3ccccc3c2n1	> 12.5 µM (inactive)	> 12.5 µM	> 12.5 µM	> 12.5 µM (inactive)	> 12.5 µM	> 12.5 µM
Cc1ccc(S(=O)(=O)Nc2ccccc2C(=O)Nc2nc(-c3ccc(F)cc3)cs2)cc1	inactive	> 12.5 µM	8.36 µM	inactive	> 12.5 µM	9.9 µM
COCCCn1c(C(=O)Nc2ccc3c(c2)OCO3)cc2c(=O)n3cccc(C)c3nc21	> 12.5 µM (inactive)	> 12.5 µM	> 12.5 µM	> 12.5 µM (inactive)	> 12.5 µM	> 12.5 µM
CCOC(=O)c1sc(NC(=O)Nc2ccc(F)cc2)nc1C	> 12.5 µM (inactive)	> 12.5 µM	> 12.5 µM	> 12.5 µM (inactive)	> 12.5 µM	> 12.5 µM
O=C(Nc1ccc2c(c1)OCCO2)NC1CCCCC1	> 12.5 µM (inactive)	> 12.5 µM	> 12.5 µM	inactive	> 12.5 µM	12 µM
CC(C)(C)OC(=O)[C@H](Cc1ccccc1)NC(=O)c1[nH]cnc1C(=O)Nc1ccccc1F	> 12.5 µM (inactive)	> 12.5 µM	> 12.5 µM	> 12.5 µM (inactive)	> 12.5 µM	> 12.5 µM
Cc1cc(N/N=C/c2ccccc2)nc(NCc2ccccc2)n1	> 12.5 µM (inactive)	> 12.5 µM	> 12.5 µM	inactive	> 12.5 µM	10.9 µM
Cc1ccn2cc(C(=O)Nc3ccc4c(c3)OCCO4)nc2c1	inactive	7.08 µM	8.4 µM	inactive	> 12.5 µM	4.29 µM
CCOc1ccc(NC(=O)Nc2cccs2)cc1	inactive	10.7 µM	6.47 µM	inactive	> 12.5 µM	6.86 µM
CCCCCCc1cc2cc(S(=O)(=O)c3ccc(F)c(Cl)c3)c(=O)oc2cc1O	> 12.5 µM (inactive)	> 12.5 µM	> 12.5 µM	> 12.5 µM (inactive)	> 12.5 µM	> 12.5 µM
CSc1nc(N)n2nc(-c3ccc(Cl)cc3)cc2n1	> 12.5 µM (inactive)	> 12.5 µM	> 12.5 µM	> 12.5 µM (inactive)	> 12.5 µM	> 12.5 µM
C/C(=N\NC(=O)c1csc(C)c1C)c1ccco1	> 12.5 µM (inactive)	> 12.5 µM	> 12.5 µM	> 12.5 µM (inactive)	> 12.5 µM	> 12.5 µM
c1ccc(-c2cnc(-c3ccccn3)nn2)cc1	inactive	5.74 µM	10 µM	inactive	> 12.5 µM	5.78 µM
CCN(CC)c1ccc(/C=N/NC(=O)c2ccco2)cc1	> 12.5 µM (inactive)	> 12.5 µM	> 12.5 µM	> 12.5 µM (inactive)	> 12.5 µM	> 12.5 µM
CCOC(=O)c1sc(NC(=O)c2cccc(S(=O)(=O)N3CCc4ccccc43)c2)c(C#N)c1C	> 12.5 µM (inactive)	> 12.5 µM	> 12.5 µM	> 12.5 µM (inactive)	> 12.5 µM	> 12.5 µM
Cc1nc2cc(NC(=O)Nc3cccc([N+](=O)[O-])c3)ccc2n1C	> 12.5 µM (inactive)	> 12.5 µM	> 12.5 µM	inactive	> 12.5 µM	6.56 µM
CC(C)C[C@H](NC(=O)c1nc[nH]c1C(=O)N[C@@H](CC(C)C)C(=O)OCc1ccccc1)C(=O)OCc1ccccc1	> 12.5 µM (inactive)	> 12.5 µM	> 12.5 µM	> 12.5 µM (inactive)	> 12.5 µM	> 12.5 µM
CC(C)CCn1cnc2c([nH]c3cccc(Cl)c32)c1=O	> 12.5 µM (inactive)	> 12.5 µM	> 12.5 µM	> 12.5 µM (inactive)	> 12.5 µM	> 12.5 µM
CC1(C)N=C(N)N=C(N)N1c1ccc(CCCCc2ccccc2)cc1	inactive	> 12.5 µM	< 0.39 µM	< 0.39 µM (inactive)	< 0.39 µM	< 0.391 µM
C/C(=N\NC(=O)c1n[nH]c2c1CCC2)c1ccco1	> 12.5 µM (inactive)	> 12.5 µM	> 12.5 µM	> 12.5 µM (inactive)	> 12.5 µM	> 12.5 µM
CCOC(=O)c1cccc(-[n+]2c(-c3ccccc3)cc(-c3ccccc3)cc2-c2ccccc2)c1	> 12.5 µM (inactive)	> 12.5 µM	> 12.5 µM	> 12.5 µM (inactive)	> 12.5 µM	> 12.5 µM
O=C(Oc1c(CN2CCOCC2)cc(Cl)c2cccnc12)c1cccs1	> 12.5 µM (inactive)	> 12.5 µM	> 12.5 µM	inactive	> 12.5 µM	6.75 µM
CCCCCCCn1c2c(c(=N)c3ccccc31)CCC2	> 12.5 µM (inactive)	> 12.5 µM	> 12.5 µM	inactive	> 12.5 µM	4.65 µM
CC(C)(C)OC(=O)NCc1ccc(NC(=O)c2nc[nH]c2C(=O)N[C@@H](Cc2ccccc2)C(=O)OCc2ccccc2)cc1	> 12.5 µM (inactive)	> 12.5 µM	> 12.5 µM	> 12.5 µM (inactive)	> 12.5 µM	> 12.5 µM
C=Cc1ccc(Cn2c(C)c(C(=O)NCc3cccc(C(F)(F)F)c3)sc2=O)cc1	> 12.5 µM (inactive)	> 12.5 µM	> 12.5 µM	> 12.5 µM (inactive)	> 12.5 µM	> 12.5 µM
O=C(NC(=S)Nc1nc2c(s1)CCCC2)c1ccccc1	> 12.5 µM (inactive)	> 12.5 µM	> 12.5 µM	inactive	7.43 µM	> 12.5 µM
CC(C)Cc1nc2oc3c(Cl)ncnc3c2c2c1CCCC2	> 12.5 µM (inactive)	> 12.5 µM	> 12.5 µM	> 12.5 µM (inactive)	> 12.5 µM	> 12.5 µM
Cc1cccc(CC(=O)Nc2cc(C)c3c(=O)oc4ccccc4c3n2)c1	> 12.5 µM (inactive)	> 12.5 µM	> 12.5 µM	> 12.5 µM (inactive)	> 12.5 µM	> 12.5 µM
COc1cccc(N/C=C/C(=O)c2ccc(Cl)cc2)c1	inactive	10.4 µM	10.3 µM	inactive	> 12.5 µM	11.1 µM
